Assay results published in publication PMC7156458, “Synthetic biology based construction of biological activity-related library of fungal decalin-containing diterpenoid pyrones” (Nature Communications, 2020).

Columns and labels:
Experiment in all cases: cells
Parameters in all cases: species or system JFCR39 human cancer cell lines; JFCR39 panel growth inhibition, sulforhodamine B total protein after 48 h
ACHN = settings: 48 h
How it was run: (§1)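 Human cancer lines from the JFCR39 panel were cultured in RPMI-1640 with 5% FBS and 1 µg mL-1 kanamycin at 37°C, 5% CO2. Cells were exposed to compound for 48 hours, and growth was measured as total cellular protein by sulforhodamine B staining; GI50 from duplicate assays.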

BSY-1 = test system: BSY-1
How it was run: as §1

DU-145 = test system: DU-145
How it was run: as §1

HBC-4 = test system: HBC-4
How it was run: as §1

HT-29 = test system: HT-29
How it was run: as §1

KM-12 = test system: KM-12
How it was run: as §1

MCF-7 = settings: Homo sapiens, MCF7, 48 h
How it was run: as §1

MDA-MB-231 = test system: MDA-MB-231
How it was run: as §1

MKN-B = settings: 48 h
How it was run: as §1

MKN74 = test system: MKN74
How it was run: as §1

NCI-H226 = test system: NCI-H226
How it was run: as §1

NCI-H460 = test system: NCI-H460
How it was run: as §1

NCI-H522 = test system: NCI-H522
How it was run: as §1

OVCAR-3 = test system: OVCAR-3
How it was run: as §1

OVCAR-5 = test system: OVCAR-5
How it was run: as §1

OVCAR-8 = test system: OVCAR-8
How it was run: as §1

SF-295 = settings: Homo sapiens, SF-295, 48 h
How it was run: as §1

SK-OV-3 = test system: SK-OV-3
How it was run: as §1

SNB-75 = test system: SNB-75
How it was run: as §1

St-4 = test system: St-4
How it was run: as §1

U251 = test system: U251
How it was run: as §1

[1] = 48 h, inhibitor, Log GI50, 48 h

C=C1CCC2C(C)(CCC=C(C)C)C(O)CCC2(C)C1Cc1c(OC)oc(CO)c(C)c1=O (stereo not drawn) [Compound 16]
Log GI50 (ACHN; inhibitor, Log GI50, 48 h): -5.541 M
Log GI50 (BSY-1; [1]): -4.961 M
Log GI50 (DU-145; [1]): -4.962 M
Log GI50 (HBC-4; [1]): -4.804 M
Log GI50 (HT-29; [1]): -4.904 M
Log GI50 (KM-12; [1]): -4.862 M
GI50 (MCF-7): 4.46 µM
Log GI50 (MDA-MB-231; [1]): -4.882 M
Log GI50 (MKN-B; inhibitor, Log GI50, 48 h): -5.237 M
Log GI50 (MKN74; [1]): -4.995 M
Log GI50 (NCI-H226; [1]): -5.269 M
Log GI50 (NCI-H460; [1]): -6.167 M
Log GI50 (NCI-H522; [1]): -5.659 M
Log GI50 (OVCAR-3; [1]): -5.447 M
Log GI50 (OVCAR-5; [1]): -4.859 M
Log GI50 (OVCAR-8; [1]): -5.076 M
GI50 (SF-295): 2.8 µM
Log GI50 (SK-OV-3; [1]): -4.993 M
Log GI50 (SNB-75; [1]): -4.827 M
Log GI50 (St-4; [1]): -4.853 M
Log GI50 (U251; [1]): -4.880 M

C=C1CC[C@@H]2[C@](C)(CC[C@H]3O[C@H](C=C(C)C)C[C@@]23C)[C@@H]1Cc1c(OC)oc(CO)c(C(=O)OC)c1=O [Compound 21]
GI50 (ACHN; Homo sapiens, ACHN): 12.2 µM
GI50 (BSY-1; BSY-1, 48 h): 14.9 µM
GI50 (DU-145; Homo sapiens, DU-145, 48 h): 15.7 µM
GI50 (HBC-4; HBC4, 48 h): 16.8 µM
GI50 (HT-29; Homo sapiens, HT-29, 48 h): 17.4 µM
GI50 (KM-12; Homo sapiens, KM12, 48 h): 18.2 µM
GI50 (MCF-7): 14.2 µM
GI50 (MDA-MB-231; Homo sapiens, MDA-MB-231, 48 h): 17.8 µM
GI50 (MKN-B): 16.8 µM
GI50 (MKN74; Homo sapiens, MKN-74, 48 h): 19.8 µM
GI50 (NCI-H226; Homo sapiens, NCI-H226, 48 h): 18.2 µM
GI50 (NCI-H460; Homo sapiens, NCI-H460, 48 h): 12.1 µM
GI50 (NCI-H522; Homo sapiens, NCI-H522, 48 h): 8.73 µM
GI50 (OVCAR-3; Homo sapiens, OVCAR-3, 48 h): 12 µM
GI50 (OVCAR-5; Homo sapiens, OVCAR-5, 48 h): 16.6 µM
GI50 (OVCAR-8; Homo sapiens, OVCAR-8, 48 h): 16.7 µM
GI50 (SF-295): 12.1 µM
GI50 (SK-OV-3; Homo sapiens, SK-OV-3, 48 h): 17.3 µM
GI50 (SNB-75; Homo sapiens, SNB-75, 48 h): 17.8 µM
GI50 (St-4; Homo sapiens, St-4, 48 h): 20 µM
GI50 (U251; Homo sapiens, U-251, 48 h): 17.5 µM
